{
  "source": "BindingDB's records for doi:10.1021/jm00117a011",
  "about": "(University of Kansas, 1988)",
  "key": {"[1]": {"target": "Adenosylhomocysteinase (Bos taurus)", "assay": "Evaluated for the 50% inhibition of bovine-liver S-Adenosyl-homocysteine (AdoHcy) hydrolase"}, "[2]": {"target": "Adenosylhomocysteinase (Bos taurus)", "assay": "Evaluated for the 50% inhibition of bovine-liver S-Adenosyl-homocysteine (AdoHcy) hydrolase", "remark": "listed apart in the source"}},
  "data": [
    {"smiles": "Nc1ncnc2c1ncn2C/C=C\\[C@@H](O)CO", "note": "[5-(6-Amino-purin-9-yl)-pent-3-ene-1,2-diol]", "values": [
      {"measurement": "Ki", "setting": "[1]", "result": 200, "unit": "nM"}
    ]},
    {"smiles": "Nc1nccc2c1ncn2C/C=C/CO", "note": "[4-(4-Amino-imidazo[4,5-c]pyridin-1-yl)-but-2-en-1-ol]", "values": [
      {"measurement": "IC50", "setting": "[2]", "result": 1230, "unit": "nM"}
    ]},
    {"smiles": "CC(C)=CCn1cnc2c(N)ncnc21", "note": "[9-(3-Methyl-but-2-enyl)-9H-purin-6-ylamine]", "values": [
      {"measurement": "IC50", "setting": "[2]", "result": 930, "unit": "nM"}
    ]},
    {"smiles": "C/C(=C/Cn1cnc2c(N)ncnc21)CO", "note": "[4-(6-Amino-purin-9-yl)-2-methyl-but-2-en-1-ol]", "values": [
      {"measurement": "Ki", "setting": "[1]", "result": 170, "unit": "nM"}
    ]},
    {"smiles": "Nc1ncnc2c1ncn2C/C=C(\\CO)[C@@H](O)CO", "values": [
      {"measurement": "Ki", "setting": "[1]", "result": "> 1000", "unit": "nM"}
    ]},
    {"smiles": "Nc1ncnc2c1ncn2C/C=C\\CO", "values": [
      {"measurement": "Ki", "setting": "[1]", "result": 125, "unit": "nM"}
    ]},
    {"smiles": "Nc1ncnc2c1ncn2CC#CCO", "values": [
      {"measurement": "IC50", "setting": "[2]", "result": 1000, "unit": "nM"}
    ]},
    {"smiles": "C/C(=C\\Cn1cnc2c(N)ncnc21)CO", "note": "[4-(6-Amino-purin-9-yl)-2-methyl-but-2-en-1-ol]", "values": [
      {"measurement": "Ki", "setting": "[1]", "result": 500, "unit": "nM"}
    ]},
    {"smiles": "Nc1ncnc2c1ncn2C/C=C/CO", "values": [
      {"measurement": "Ki", "setting": "[1]", "result": 330, "unit": "nM"}
    ]},
    {"smiles": "Nc1nccc2c1ncn2C/C=C\\CO", "note": "[4-(4-Amino-imidazo[4,5-c]pyridin-1-yl)-but-2-en-1-ol]", "values": [
      {"measurement": "Ki", "setting": "[1]", "result": 200, "unit": "nM"}
    ]},
    {"smiles": "Nc1nccc2c1ncn2CC=C(CO)CO", "note": "[2-[2-(4-Amino-imidazo[4,5-c]pyridin-1-yl)-ethylidene]-propane-1,3-diol]", "values": [
      {"measurement": "Ki", "setting": "[1]", "result": 166, "unit": "nM"}
    ]},
    {"smiles": "Nc1ncnc2c1ncn2CC=C(CO)CO", "note": "[2-[2-(6-Amino-purin-9-yl)-ethylidene]-propane-1,3-diol]", "values": [
      {"measurement": "Ki", "setting": "[1]", "result": 110, "unit": "nM"}
    ]},
    {"smiles": "Nc1ncnc2c1ncn2C/C=C/C(O)CO", "note": "(stereo not given) [5-(6-Amino-purin-9-yl)-pent-3-ene-1,2-diol]", "values": [
      {"measurement": "IC50", "setting": "[2]", "result": 950, "unit": "nM"}
    ]},
    {"smiles": "Nc1nccc2c1ncn2CC#CCO", "note": "[4-(4-Amino-imidazo[4,5-c]pyridin-1-yl)-but-2-yn-1-ol]", "values": [
      {"measurement": "Ki", "setting": "[1]", "result": 160, "unit": "nM"}
    ]},
    {"smiles": "Nc1nccc2c1ncn2C/C=C\\[C@@H](O)CO", "note": "[5-(4-Amino-imidazo[4,5-c]pyridin-1-yl)-pent-3-ene-1,2-diol]", "values": [
      {"measurement": "Ki", "setting": "[1]", "result": 90, "unit": "nM"}
    ]}
  ]
}
